# Data: patent publication US20100222322A1, “Non-Nucleoside Reverse Transcriptase Inhibitors” (MERCK & CO., INC., priority 2005, published 2010)
# Like-named read-outs stand apart in the source and are kept apart here.
# Columns and labels:
# [1] = target: T1, mutant HIV reverse transcriptase with the Y181C mutation (Human immunodeficiency virus type 1 group M subtype B, UniProt P04585, Y768C); assay: Analogous RT inhibition assay, Y181C mutant; format: biochemical
# T1 construct: mutations that occur in the reverse transcriptase segment of the pol gene; made in house
# Description: (§1) 100 μL reaction mixtures were initiated with a combination of primer-template substrate (10 nM final concentration) and dNTPs (0.6 μM dNTPs, 0.75 μM [^3H]-dGTP). The heterodimeric nucleic acid substrate was generated by annealing the DNA primer pD500 (described in Shaw-Reid et al., J. Biol. Chem., 278: 2777-2780; obtained from Integrated DNA Technologies) to t500, a 500 nucleotide RNA template created by in vitro transcription (see Shaw-Reid et al., J. Biol. Chem., 278: 2777-2780). After 1 hour incubation at 37° C., reactions were quenched by 10 μL streptavidin scintillation proximity assay beads (10 mg/mL, from Amersham Biosciences) in 0.5 M EDTA, pH 8. Microtiter plates were incubated an additional 10 minutes at 37° C. prior to quantification via Topcount (Packard).
# (§2) Analogous assays were conducted substituting mutant HIV strains to determine the […] inhibition of compounds of the present invention against mutant HIV reverse transcriptase. In one strain the reverse transcriptase has the Y181C mutation and in the other strain the reverse transcriptase has the K103N mutation. The mutations were generated with the […] site-directed mutagenesis kit (Stratagene). […] The compounds set forth in the other Examples were not tested in the Y181C assay. […] The compounds set forth in the other Examples were not tested in the K103N assay.
# [2] = target: T2, mutant HIV reverse transcriptase with the K103N mutation (Human immunodeficiency virus type 1 group M subtype B, UniProt P04585, K690N); assay: Analogous RT inhibition assay, K103N mutant; format: biochemical
# T2 construct: mutations that occur in the reverse transcriptase segment of the pol gene; made in house
# Description: as §1, §2
# [3] = system: HIV replication in T-lymphoid cells; assay: Spread assay: inhibition of acute HIV infection of T-lymphoid cells; format: cell-based; settings: read-out: IC95, spread assay (inhibition of HIV replication)
# Description: An assay for the inhibition of acute HIV infection of T-lymphoid cells (alternatively referred to herein as the “spread assay”) was conducted in accordance with Vacca, J. P. et al., Proc. Natl. Acad. Sci. USA 1994, 91: 4096. […] The compounds of Examples 26, 29, 30, 33-35 and 62 were tested in the spread assay up to 10 micromolar, but specific IC95 values were not obtained; i.e., the IC95 values were greater than 10 micromolar. The compounds of Examples 47 and 61 were not tested.
# [4] = Human immunodeficiency virus 1, acute HIV infection of T-lymphoid cells, tested up to 10 micromolar
# [5] = RT with Y181C mutation, tested up to 20 micromolar, read-out: IC50, Y181C mutant assay
# [6] = RT with K103N mutation, tested up to 20 micromolar, read-out: IC50, K103N mutant assay
smiles,measurement,setting,value
"CON(C)S(=O)(=O)c1c(C(N)=O)[nH]c2ccc(Br)cc12 [Example 12, 5-bromo-3-{[methoxy(methyl)amino]sulfonyl}-1H-indole-2-carboxamide]",IC50,[1],> 20000 nM
same,IC50,[2],> 20000 nM
same,IC95,[3]; [4],< 1000 nM
"NC(=O)c1[nH]c2ccc(Cl)cc2c1S(=O)(=O)NC1CCCC1 [Example 4, 5-chloro-3-[(cyclopentylamino)sulfonyl]-1H-indole-2-carboxamide]",IC50,[1]; [5],< 1000 nM
same,IC50,[2],> 20000 nM
same,IC95,[3]; [4],< 1000 nM
"NC(=O)c1[nH]c2ccc(Br)cc2c1S(=O)(=O)NCCS(N)(=O)=O [Example 9, 3-({[2-(aminosulfonyl)ethyl]amino}sulfonyl)-5-bromo-1H-indole-2-carboxamide]",IC50,[1],1000 to 20000 nM
same,IC50,[2],1000 to 20000 nM
same,IC95,[3]; [4],< 1000 nM
"NC(=O)c1[nH]c2ccc(Br)cc2c1S(=O)(=O)NC1CCCCC1 [Example 16, 5-bromo-3-[(cyclohexylamino)sulfonyl]-1H-indole-2-carboxamide]",IC50,[1]; [5],< 1000 nM
same,IC50,[2]; [6],> 20000 nM
same,IC95,[3]; [4],< 1000 nM
"O=C(NCc1cncs1)c1[nH]c2ccc(Br)cc2c1S(=O)(=O)N1CCCC1 [Example 65, 5-bromo-3-(pyrrolidin-1-ylsulfonyl)-N-(1,3-thiazol-5-ylmethyl)-1H-indole-2-carboxamide]",IC50,[1],< 1000 nM
same,IC50,[2],< 1000 nM
same,IC95,[3]; [4],< 1000 nM
"O=C(NCCO)c1[nH]c2ccc(Br)cc2c1S(=O)(=O)N1CCCC1 [Example 32, 5-bromo-N-(2-hydroxyethyl)-3-(pyrrolidin-1-ylsulfonyl)-1H-indole-2-carboxamide]",IC50,[1],< 1000 nM
same,IC50,[2],1000 to 20000 nM
same,IC95,"[3]; Human immunodeficiency virus 1, T-lymphoid",< 1000 nM
"CN(C1CC1)S(=O)(=O)c1c(C(N)=O)[nH]c2ccc(Br)cc12 [Example 8, 5-bromo-3-{[cyclopropyl(methyl)amino]sulfonyl}-1H-indole-2-carboxamide]",IC50,[1],1000 to 20000 nM
same,IC50,[2],> 20000 nM
same,IC95,[3]; [4],< 1000 nM
"NC(=O)c1[nH]c2ccc(Br)cc2c1S(=O)(=O)NCC1CCCO1 (stereo not drawn) [Example 18, 5-bromo-3-{[(tetrahydrofuran-2-ylmethyl)amino]sulfonyl}-1H-indole-2-carboxamide]",IC50,[1]; [5],< 1000 nM
same,IC50,[2]; [6],> 20000 nM
same,IC95,[3]; [4],< 1000 nM
"NC(=O)c1[nH]c2ccc(Br)cc2c1S(=O)(=O)N1CCCCC1 [Example 13, 5-bromo-3-(piperidin-1-ylsulfonyl)-1H-indole-2-carboxamide]",IC50,[1]; [5],< 1000 nM
same,IC50,[2]; [6],1000 to 20000 nM
same,IC95,[3]; [4],< 1000 nM
"O=C(NCc1ccccc1O)c1[nH]c2ccc(Br)cc2c1S(=O)(=O)N1CCCC1 [Example 51, 5-bromo-N-(2-hydroxybenzyl)-3-(pyrrolidin-1-ylsulfonyl)-1H-indole-2-carboxamide]",IC50,[1],< 1000 nM
same,IC50,[2],< 1000 nM
same,IC95,[3]; [4],< 1000 nM
"NC(=O)c1[nH]c2ccc(Br)cc2c1S(=O)(=O)N1CC=CC1 [Example 10, 5-bromo-3-(2,5-dihydro-1H-pyrrol-1-ylsulfonyl)-1H-indole-2-carboxamide]",IC50,[1],< 1000 nM
same,IC50,[2],< 1000 nM
same,IC95,[3]; [4],< 1000 nM
"NC(=O)c1[nH]c2ccc(Cl)cc2c1S(=O)(=O)N1CCCCC1 [Example 5, 5-chloro-3-(piperidin-1-ylsulfonyl)-1H-indole-2-carboxamide]",IC50,[1]; [5],< 1000 nM
same,IC50,[2],> 20000 nM
same,IC95,[3]; [4],< 1000 nM
"NC(=O)c1[nH]c2ccc(Cl)cc2c1S(=O)(=O)N1CCC(F)C1 (stereo not drawn) [Example 38, 5-chloro-3-[(3-fluoropyrrolidin-1-yl)sulfonyl]-1H-indole-2-carboxamide]",IC50,[1]; [5],< 1000 nM
same,IC50,[2],1000 to 20000 nM
same,IC95,[3]; [4],< 1000 nM
"NC(=O)c1[nH]c2ccc(Br)cc2c1S(=O)(=O)N1CCCC1 [Example 1, 5-Bromo-3-(pyrrolidin-1-ylsulfonyl)-1H-indole-2-carboxamide]",IC50,[1]; [5],< 1000 nM
same,IC50,[2]; [6],1000 to 20000 nM
same,IC95,[3]; [4],< 1000 nM
"NC(=O)c1[nH]c2ccc(Br)cc2c1S(=O)(=O)NC1CCCC1 [Example 17, 5-bromo-3-[(cyclopentylamino)sulfonyl]-1H-indole-2-carboxamide]",IC50,[1]; [5],< 1000 nM
same,IC50,[2]; [6],> 20000 nM
same,IC95,[3]; [4],< 1000 nM
"NC(=O)c1[nH]c2ccc(Cl)cc2c1S(=O)(=O)N1CC=CC1 [Example 37, 5-chloro-3-(2,5-dihydro-1H-pyrrol-1-ylsulfonyl)-1H-indole-2-carboxamide]",IC50,[1]; [5],< 1000 nM
same,IC50,[2],1000 to 20000 nM
same,IC95,[3]; [4],< 1000 nM
"O=C(NCc1ccn[nH]1)c1[nH]c2ccc(Br)cc2c1S(=O)(=O)N1CCCC1 [Example 59, 5-bromo-N-(1H-pyrazol-5-ylmethyl)-3-(pyrrolidin-1-ylsulfonyl)-1H-indole-2-carboxamide]",IC50,[1],< 1000 nM
same,IC50,[2],< 1000 nM
same,IC95,[3]; [4],< 1000 nM
"NC(=O)c1[nH]c2ccc(Cl)cc2c1S(=O)(=O)NC1CCCCC1 [Example 2, 5-chloro-3-[(cyclohexylamino)sulfonyl]-1H-indole-2-carboxamide]",IC50,[1],< 1000 nM
same,IC50,[2],> 20000 nM
same,IC95,[3]; [4],< 1000 nM
"NC(=O)c1[nH]c2ccc(Cl)cc2c1S(=O)(=O)N1CCCC1 [Example 6, 5-chloro-3-(pyrrolidin-1-ylsulfonyl)-1H-indole-2-carboxamide]",IC50,[1]; [5],< 1000 nM
same,IC50,[2],1000 to 20000 nM
same,IC95,[3]; [4],< 1000 nM
